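Cells were grown in 96-well plates and exposed to each compound for 48 hours at five concentrations; endpoints were interpolated linearly between bracketing concentrations, or set to the highest concentration if not reached. GI50 is the concentration that inhibits growth by half. Definition used: TGI = concentration required for complete inhibition of growth.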
Key:
Experiment in all cases: DTP human tumour cell line panel, 48 h
HOP-62 NSCLC = tested on: HOP-62 NSCLC
HCT-116 colon = tested on: HCT-116 colon
SF-268 CNS = tested on: SF-268 CNS
SK-MEL-5 melanoma = tested on: SK-MEL-5 melanoma
ACHN renal = tested on: ACHN renal
MALME-3M melanoma = tested on: MALME-3M melanoma
SK-MEL-28 melanoma = tested on: SK-MEL-28 melanoma
SN12C renal = tested on: SN12C renal
SK-MEL-2 melanoma = tested on: SK-MEL-2 melanoma

Compound	TGI (HOP-62 NSCLC) [µM]	TGI (HCT-116 colon) [µM]	TGI (SF-268 CNS) [µM]	TGI (SK-MEL-5 melanoma) [µM]	TGI (ACHN renal) [µM]	TGI (MALME-3M melanoma) [µM]	TGI (SK-MEL-28 melanoma) [µM]	TGI (SN12C renal) [µM]	TGI (SK-MEL-2 melanoma) [µM]	GI50 (HOP-62 NSCLC) [µM]	GI50 (SK-MEL-2 melanoma) [µM]	GI50 (HCT-116 colon) [µM]	GI50 (SF-268 CNS) [µM]	GI50 (SK-MEL-5 melanoma) [µM]	GI50 (ACHN renal) [µM]	GI50 (MALME-3M melanoma) [µM]	GI50 (SK-MEL-28 melanoma) [µM]	GI50 (SN12C renal) [µM]
O=c1[nH]c(=O)n(C2CC(O)C(CO)O2)cc1OCCCc1ccccc1 (stereo unspecified)	> 100	> 100	> 100	> 100	> 100	> 100	> 100	> 100										
COc1cc2c(c(C)c1O)[C@H]1COc3ccccc3[C@H]1O2	> 100	18.7	96.1	22.9	> 100	89.1	> 100		> 100									
COCC1CCCN1c1ccc(/C=C(/C#N)C(N)=S)cc1 (stereo unspecified)	> 100	> 100	> 100	> 100	> 100	> 100	> 100	> 100	> 100	> 100	> 100	> 100	> 100	89.1	> 100	> 100	> 100	30.5
COc1cc(-c2oc3c(OC)c(O)c(OC)c(O)c3c(=O)c2OC)cc(O)c1OC	> 100	> 100		55.6	> 100	99.4	> 100	> 100	> 100									
COc1cc(C2C(Cl)C(=O)N2NC(=O)c2ccccc2O)ccc1O (stereo unspecified)		> 100	> 100	> 100	> 100	> 100	> 100	> 100	> 100									
CSc1nc(-c2cc3c(c(SC)n2)CCCCC3)cc2c1CCCCC2	> 100	> 100	> 100	> 100	> 100		> 100	> 100	> 100									
O=C1CCC[C@]2(CCC[C@@H](O)C2)N1	> 100	> 100	> 100	> 100	> 100	> 100		> 100	> 100									
CC1OC(OC2C(O[C@H]3CC[C@@]4(C)[C@@H](CC[C@@H]5[C@@H]4CC[C@]4(C)[C@@H]6[C@H](C[C@@H]54)O[C@]4(CC[C@@H](C)CO4)[C@H]6C)C3)OC(CO)C(OC3OC(CO)C(O)C(OC4OCC(O)C(O)C4O)C3OC3OCC(O)C(O)C3O)C2O)C(O)C(O)C1O (stereo partly specified)	2.03	1.02	3.37		2.2	2.63	2.04		2.27									
COc1cc(C2c3cc4c(cc3OC(Nc3ccc(C(=O)O)cc3)C2C)OCO4)cc(OC)c1OC (stereo unspecified)	> 100	12.2	> 39.1	0.522	> 68.6		> 100	> 100	> 59.9									
